According to ChEMBL document CHEMBL3769336, “Discovery of a Chemical Tool Inhibitor Targeting the Bromodomains of TRIM24 and BRPF” (J Med Chem, 2016):

Tests used:
[1] = molecular target: T1, Transcription intermediary factor 1-alpha (Homo sapiens, UniProt O15164); experiment: Inhibition of N-terminal His6-SUMO-1-tagged recombinant human TRIM24 bromodomain expressed in Escherichia coli BL21(DE3)-R3-pRARE2 cells by Alpha Screen assay
T1 sequence (O15164 whole entry): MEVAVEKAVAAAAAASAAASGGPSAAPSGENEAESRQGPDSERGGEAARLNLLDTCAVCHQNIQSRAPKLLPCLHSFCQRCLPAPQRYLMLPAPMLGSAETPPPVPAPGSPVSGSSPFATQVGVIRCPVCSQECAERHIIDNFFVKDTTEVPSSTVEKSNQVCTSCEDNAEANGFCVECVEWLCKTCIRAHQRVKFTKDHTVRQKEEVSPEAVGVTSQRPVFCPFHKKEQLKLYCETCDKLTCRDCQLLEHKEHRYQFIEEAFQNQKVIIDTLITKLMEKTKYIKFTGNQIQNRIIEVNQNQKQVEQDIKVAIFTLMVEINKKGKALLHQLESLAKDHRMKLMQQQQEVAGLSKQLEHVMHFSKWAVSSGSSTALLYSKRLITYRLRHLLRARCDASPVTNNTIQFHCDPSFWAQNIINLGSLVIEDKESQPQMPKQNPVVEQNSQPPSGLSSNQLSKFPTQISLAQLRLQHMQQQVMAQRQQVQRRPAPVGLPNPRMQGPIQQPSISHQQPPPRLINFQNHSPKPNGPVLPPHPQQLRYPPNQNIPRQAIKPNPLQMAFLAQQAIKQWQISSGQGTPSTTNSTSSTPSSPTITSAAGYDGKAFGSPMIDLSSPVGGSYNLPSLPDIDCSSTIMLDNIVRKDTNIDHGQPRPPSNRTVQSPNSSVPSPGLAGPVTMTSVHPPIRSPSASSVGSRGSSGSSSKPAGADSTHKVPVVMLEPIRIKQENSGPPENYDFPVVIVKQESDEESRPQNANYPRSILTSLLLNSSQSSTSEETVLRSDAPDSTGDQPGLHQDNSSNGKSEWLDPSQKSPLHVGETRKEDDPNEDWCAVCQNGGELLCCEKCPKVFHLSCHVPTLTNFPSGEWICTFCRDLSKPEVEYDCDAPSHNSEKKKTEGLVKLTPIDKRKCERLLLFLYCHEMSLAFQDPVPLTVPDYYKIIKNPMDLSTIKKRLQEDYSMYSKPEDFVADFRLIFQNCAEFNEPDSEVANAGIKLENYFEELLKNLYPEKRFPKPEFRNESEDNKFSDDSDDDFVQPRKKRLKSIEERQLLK

Peregrin = molecular target: T2, Peregrin (Homo sapiens, UniProt P55201); experiment: Inhibition of BRPF1B (unknown origin) by Alpha Screen assay
T2 sequence (P55201 whole entry): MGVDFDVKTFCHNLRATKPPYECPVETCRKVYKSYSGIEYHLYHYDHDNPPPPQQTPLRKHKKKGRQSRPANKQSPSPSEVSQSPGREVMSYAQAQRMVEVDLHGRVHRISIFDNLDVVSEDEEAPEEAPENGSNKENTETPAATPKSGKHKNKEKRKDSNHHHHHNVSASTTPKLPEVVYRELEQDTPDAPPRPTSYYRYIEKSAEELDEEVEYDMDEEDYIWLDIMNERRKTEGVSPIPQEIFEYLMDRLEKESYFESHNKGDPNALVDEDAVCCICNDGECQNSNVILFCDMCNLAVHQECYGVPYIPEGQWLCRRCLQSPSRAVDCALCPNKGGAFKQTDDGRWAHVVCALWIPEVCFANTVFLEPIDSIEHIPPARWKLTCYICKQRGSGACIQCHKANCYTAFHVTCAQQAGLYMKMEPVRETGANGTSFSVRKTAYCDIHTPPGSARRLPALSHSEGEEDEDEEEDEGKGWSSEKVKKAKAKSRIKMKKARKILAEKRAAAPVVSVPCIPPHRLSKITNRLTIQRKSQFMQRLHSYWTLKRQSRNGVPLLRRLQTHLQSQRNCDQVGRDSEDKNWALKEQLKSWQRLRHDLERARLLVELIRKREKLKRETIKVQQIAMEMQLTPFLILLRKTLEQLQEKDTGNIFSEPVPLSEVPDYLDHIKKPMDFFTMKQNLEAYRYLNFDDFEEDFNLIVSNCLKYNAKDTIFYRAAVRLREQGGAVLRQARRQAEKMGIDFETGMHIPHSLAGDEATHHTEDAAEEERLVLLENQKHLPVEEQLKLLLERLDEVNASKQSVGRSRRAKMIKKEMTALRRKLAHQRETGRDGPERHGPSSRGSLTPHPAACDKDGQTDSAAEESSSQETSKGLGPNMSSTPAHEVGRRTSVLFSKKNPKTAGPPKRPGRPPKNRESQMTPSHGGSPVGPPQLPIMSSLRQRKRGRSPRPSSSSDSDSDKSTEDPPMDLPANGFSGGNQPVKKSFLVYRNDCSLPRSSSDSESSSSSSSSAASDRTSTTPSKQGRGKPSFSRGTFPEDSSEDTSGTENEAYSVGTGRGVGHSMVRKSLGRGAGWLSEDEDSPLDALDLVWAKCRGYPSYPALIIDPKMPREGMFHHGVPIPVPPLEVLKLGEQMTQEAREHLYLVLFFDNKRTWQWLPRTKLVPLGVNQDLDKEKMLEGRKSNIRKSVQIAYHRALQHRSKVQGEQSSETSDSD

[2] = molecular target: T3, Bromodomain-containing protein 1 (Homo sapiens, UniProt O95696); experiment: Inhibition of BRPF2 BRD1 (unknown origin) by Alpha Screen assay
T3 sequence (O95696 whole entry): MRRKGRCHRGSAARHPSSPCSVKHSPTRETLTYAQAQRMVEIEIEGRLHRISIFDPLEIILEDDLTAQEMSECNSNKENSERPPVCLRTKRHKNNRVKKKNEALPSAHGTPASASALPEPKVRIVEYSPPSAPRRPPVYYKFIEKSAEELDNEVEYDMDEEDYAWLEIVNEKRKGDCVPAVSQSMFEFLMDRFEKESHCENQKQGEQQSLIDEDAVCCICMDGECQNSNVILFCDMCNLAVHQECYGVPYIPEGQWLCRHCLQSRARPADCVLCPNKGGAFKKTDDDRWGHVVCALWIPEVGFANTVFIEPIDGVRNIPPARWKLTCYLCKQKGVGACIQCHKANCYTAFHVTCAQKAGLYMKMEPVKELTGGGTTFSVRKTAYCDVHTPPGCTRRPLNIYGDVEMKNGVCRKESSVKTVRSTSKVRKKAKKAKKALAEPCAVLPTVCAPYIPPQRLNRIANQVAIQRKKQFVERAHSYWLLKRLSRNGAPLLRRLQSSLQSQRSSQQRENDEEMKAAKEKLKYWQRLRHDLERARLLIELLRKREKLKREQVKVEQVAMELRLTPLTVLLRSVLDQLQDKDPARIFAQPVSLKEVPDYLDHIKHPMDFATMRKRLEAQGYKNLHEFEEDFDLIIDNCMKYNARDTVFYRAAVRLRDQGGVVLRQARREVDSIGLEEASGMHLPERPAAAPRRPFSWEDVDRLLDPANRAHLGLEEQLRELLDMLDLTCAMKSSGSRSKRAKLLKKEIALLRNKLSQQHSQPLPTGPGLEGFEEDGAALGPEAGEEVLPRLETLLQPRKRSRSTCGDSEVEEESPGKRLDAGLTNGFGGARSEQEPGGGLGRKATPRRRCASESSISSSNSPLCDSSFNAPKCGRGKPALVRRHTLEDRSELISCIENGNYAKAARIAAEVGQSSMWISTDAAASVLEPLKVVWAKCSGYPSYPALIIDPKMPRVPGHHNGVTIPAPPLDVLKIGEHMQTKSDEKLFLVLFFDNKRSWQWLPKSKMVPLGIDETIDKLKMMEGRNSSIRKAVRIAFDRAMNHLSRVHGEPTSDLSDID

`COc1cccc(S(=O)(=O)Nc2cc3c(cc2Oc2ccccc2)n(C)c(=O)n3C)c1` was tested, and the IC50 [1] was 2380 nM, the IC50 (Peregrin) was 430 nM and the IC50 [2] was 1990 nM.

In the case of `Cc1ccccc1S(=O)(=O)Nc1cc2c(cc1Oc1ccccc1)n(C)c(=O)n2C`, the IC50 [1] is reported as 2620 nM, the IC50 (Peregrin) is reported as 430 nM and the IC50 [2] is reported as 1700 nM.

Compound `Cc1cc(Cl)ccc1S(=O)(=O)Nc1cc2c(cc1Oc1ccccc1)n(C)c(=O)n2C` has an IC50 [1] of 2450 nM, an IC50 (Peregrin) of 1170 nM and an IC50 [2] of 2390 nM.

In the case of `COc1ccc(S(=O)(=O)Nc2cc3c(cc2Oc2ccccc2)n(C)c(=O)n3C)cc1`, the IC50 [1] is reported as 740 nM, the IC50 (Peregrin) is reported as 340 nM and the IC50 [2] is reported as 1330 nM.

`Cn1c(=O)n(C)c2cc(Oc3ccccc3)c(NS(=O)(=O)c3ccc(Cl)cc3)cc21` was tested, and the IC50 [1] was 1560 nM, the IC50 (Peregrin) was 270 nM and the IC50 [2] was 3470 nM.

For `COc1ccc(Oc2cc3c(cc2NS(=O)(=O)c2ccc(C)cc2)n(C)c(=O)n3C)cc1`, the IC50 [1] was 2700 nM, the IC50 (Peregrin) was 2240 nM and the IC50 [2] was > 10000 nM.

Work on `Cn1c(=O)n(C)c2cc(NS(=O)(=O)c3ccc4c(c3)CCCC4)ccc21` yielded an IC50 [1] of 6170 nM, an IC50 (Peregrin) of 330 nM and an IC50 [2] of 2050 nM.

For `Cn1c(=O)n(C)c2cc(NS(=O)(=O)c3ccc4c(c3)CCC(C)(C)O4)ccc21`, the IC50 [1] was 3690 nM, the IC50 (Peregrin) was 310 nM and the IC50 [2] was 2460 nM.

`Cc1ccc(F)cc1S(=O)(=O)Nc1cc2c(cc1Oc1ccccc1)n(C)c(=O)n2C` gave an IC50 [1] of 3420 nM, an IC50 (Peregrin) of 790 nM and an IC50 [2] of 2420 nM.

For `Cn1c(=O)n(C)c2cc(NS(=O)(=O)c3ccc4c(c3)CCC4)ccc21`, the IC50 [1] was > 10000 nM, the IC50 (Peregrin) was 290 nM and the IC50 [2] was 1710 nM.

`COc1ccc(Oc2cc3c(cc2NS(=O)(=O)c2ccccc2)n(C)c(=O)n3C)cc1` gave an IC50 [1] of 730 nM, an IC50 (Peregrin) of 660 nM and an IC50 [2] of 2770 nM.

In the case of `Cc1ccc(S(=O)(=O)Nc2ccc3c(c2)n(C)c(=O)n3C)cc1F`, the IC50 [1] is reported as > 10000 nM, the IC50 (Peregrin) is reported as 590 nM and the IC50 [2] is reported as 6140 nM.

`Cc1ccc(S(=O)(=O)Nc2cc3c(cc2Oc2ccccc2)n(C)c(=O)n3C)cc1F` showed an IC50 [1] of 2700 nM, an IC50 (Peregrin) of 1050 nM and an IC50 [2] of 3690 nM.

With `COc1ccc(S(=O)(=O)Nc2cc3c(cc2Oc2ccccc2)n(C)c(=O)n3C)cc1OC` the IC50 [1] was 480 nM, the IC50 (Peregrin) was 290 nM and the IC50 [2] was 1210 nM.

With `COc1ccc(Oc2cc3c(cc2NS(=O)(=O)c2ccccc2C)n(C)c(=O)n3C)cc1` the IC50 [1] was 1470 nM, the IC50 (Peregrin) was 680 nM and the IC50 [2] was 2380 nM.

`Cn1c(=O)n(C)c2cc(NS(=O)(=O)c3ccc4c(c3)CCCO4)ccc21` showed an IC50 [1] of 4630 nM, an IC50 (Peregrin) of 270 nM and an IC50 [2] of 1600 nM.

For `Cc1ccc(S(=O)(=O)Nc2cc3c(cc2Oc2ccccc2)n(C)c(=O)n3C)cc1`, the IC50 [1] was 1270 nM, the IC50 (Peregrin) was 510 nM and the IC50 [2] was 2920 nM.

`COc1cc2c(cc1NS(=O)(=O)c1ccc(Br)cc1C)n(C)c(=O)n2C` gave an IC50 [2] of 1200 nM.

In the case of `CCCOc1ccc(S(=O)(=O)Nc2cc3c(cc2Oc2ccc(OC)cc2)n(C)c(=O)n3C)cc1`, the IC50 [1] is reported as 8400 nM, the IC50 (Peregrin) is reported as 6720 nM and the IC50 [2] is reported as > 10000 nM.

In the case of `Cc1ccc(S(=O)(=O)Nc2cc3c(cc2Oc2ccccc2)n(C)c(=O)n3C)cc1C`, the IC50 [1] is reported as 4770 nM, the IC50 (Peregrin) is reported as 3100 nM and the IC50 [2] is reported as 5160 nM.

In the case of `COC1(C)Oc2cc(S(=O)(=O)Nc3ccc4c(c3)n(C)c(=O)n4C)ccc2O[C@]1(C)OC` (stereo not given in full), the IC50 [1] is reported as > 10000 nM, the IC50 (Peregrin) is reported as 1400 nM and the IC50 [2] is reported as > 10000 nM.

With `Cn1c(=O)n(C)c2cc(Oc3ccccc3)c(NS(=O)(=O)c3ccc4c(c3)CCCC4)cc21` the IC50 [1] was > 10000 nM, the IC50 (Peregrin) was 2680 nM and the IC50 [2] was 2670 nM.

In the case of `CC(C)c1ccc(S(=O)(=O)Nc2ccc3c(c2)n(C)c(=O)n3C)cc1`, the IC50 [1] is reported as 3450 nM, the IC50 (Peregrin) is reported as 420 nM and the IC50 [2] is reported as 4300 nM.

In the case of `COc1ccc(Oc2cc3c(cc2NS(=O)(=O)c2ccc(OC)cc2)n(C)c(=O)n3C)cc1`, the IC50 [1] is reported as 770 nM, the IC50 (Peregrin) is reported as 660 nM and the IC50 [2] is reported as 3580 nM.
